Results: patent US4925865A, “Antimycotic agents” (Bayer Aktiengesellschaft, priority 1987, dated 1990)
≈ marks a conversion by molar mass, not a printed value.

Key:
Microsporum canis = test: Antimycotic in vitro activity, serial dilution test, Microsporum canis; assay type: cell-based; details: Sabouraud's test medium, 28-37° C., 96 hours
Method: (§1) The in vitro tests were carried out in the serial dilution test using inocula of microorganisms of approximately 5×10^3 to 10^4 microorganisms/ml of substrate. The nutrient medium used was (a) for dermatophytes and Blastomycetes: Sabouraud's test medium (b) for yeasts: meat extract/dextrose broth. The incubation temperature was 28° C. to 37° C., and the incubation period was 24 to 96 hours with yeasts and 96 hours with dermatophytes and Blastomycetes.

Trichophyton mentagr. = test: Antimycotic in vitro activity, serial dilution test, Trichophyton mentagr.; assay type: cell-based, Trichophyton mentagrophytes; details: Sabouraud's test medium, 28-37° C., 96 hours
Method: as §1

Aspergillus fumigatus = test: Antimycotic in vitro activity, serial dilution test, Aspergillus fumigatus; assay type: cell-based; details: 28-37° C.
Method: as §1

Candida albicans = test: Antimycotic in vitro activity, serial dilution test, Candida albicans; assay type: cell-based; details: meat extract/dextrose broth, 28-37° C., 24 to 96 hours
Method: as §1

Torulopsis glabrata = test: Antimycotic in vitro activity, serial dilution test, Torulopsis glabrata; assay type: cell-based; details: Nakaseomyces glabratus; 28-37° C., 24 to 96 hours
Method: as §1

[1] = system: dermatophytes, Blastomycetes and yeasts; test: Antimycotic in vitro activity, serial dilution test, overall comparison; assay type: cell-based
Method: as §1

Candida = test: Antimycotic in vivo activity (oral) in mouse candidiasis; set-up: species or system mouse (SPF-CF1 type); details: for action compared with compounds (A) and (B): oral 10-100 mg/kg; for Action (survival on the 6th day post infection): oral 10-100 mg/kg one hour before and seven hours after i.v. inoculation
Method: Mice of the SPF-CF1 type were intravenously inoculated with 1-2×10^6 logarithmically growing Candida cells, suspended in physiological saline solution. One hour before and seven hours after the inoculation, the animals are in each case orally treated with 10-100 mg/kg of body weight of the preparation. Untreated animals died 3 to 6 days post infection. The survival rate on the 6th day post infection was about 5% in untreated control animals.

mycoses = details: compare EP-OS No.0,180,850; cited from earlier work

SMILES | MIC (Microsporum canis) [µg/mL] | MIC (Trichophyton mentagr.) [µg/mL] | MIC (Aspergillus fumigatus) [µg/mL] | MIC (Candida albicans) [µg/mL] | MIC (Torulopsis glabrata) [µg/mL] | antimycotic activity compared with compounds (A) and (B) [1] | action compared with compounds (A) and (B) (Candida) | Action (survival on the 6th day post infection) (Candida) | antimycotic properties (mycoses)
Cc1ccc(C=CC(O)(Cn2cncn2)C2(Cl)CC2)cc1 (stereo not drawn) [Compound I-28] | < 1 | < 1 | < 1 | < 1 | < 1 | better antimycotic activity than the compounds (A) and (B) | – | – | –
CSC1(C(O)(C=Cc2ccc(Cl)cc2)Cn2cncn2)CC1 (stereo not drawn) [Compound I-13] | 4 (≈ 11.9 µM) | < 1 | < 1 | 2 (≈ 5.95 µM) | 2 (≈ 5.95 µM) | better antimycotic activity than the compounds (A) and (B) | better action than the compounds (A) and (B) | +++++ (very good action = 90% survival on the 6th day post infection) | –
OC(Cn1cncn1)(c1ccc(Cl)cc1)C1(F)CC1 (stereo not drawn) [(A), 1-(4-chlorophenyl)-1-(1-fluoro-cycloprop-1-yl)-2-(1,2,4-triazol-1-yl)-ethan-1-ol, reference compound] | – | > 64 | > 64 | > 64 | – | – | – | – | exhibit antimycotic properties
OC(CCc1ccc(F)cc1)(Cn1cncn1)C1(Cl)CC1 (stereo not drawn) [Compound I-12] | 4 (≈ 12.9 µM) | < 1 | < 1 | 8 (≈ 25.8 µM) | 32 (≈ 103 µM) | better antimycotic activity than the compounds (A) and (B) | – | – | –
OC(CCc1ccc(Cl)cc1Cl)(Cn1cncn1)C1(Cl)CC1 (stereo not drawn) [Compound I-22] | 4 (≈ 11.1 µM) | < 1 | < 1 | 2 (≈ 5.55 µM) | 2 (≈ 5.55 µM) | better antimycotic activity than the compounds (A) and (B) | – | – | –
CC(C)(CCC(O)(Cn1cncn1)C1(Cl)CC1)Cc1ccc(Cl)cc1 (stereo not drawn) [Compound I-17] | – | 2 (≈ 5.23 µM) | 4 (≈ 10.5 µM) | < 1 | 2 (≈ 5.23 µM) | better antimycotic activity than the compounds (A) and (B) | – | – | –
CC(C)(C)C=CC(O)(Cn1cncn1)C1(Cl)CC1 (stereo not drawn) [Compound I-38] | 4 (≈ 14.8 µM) | < 1 | 8 (≈ 29.7 µM) | 4 (≈ 14.8 µM) | 4 (≈ 14.8 µM) | better antimycotic activity than the compounds (A) and (B) | – | – | –
OC(CCc1ccccc1Cl)(Cn1cncn1)C1(Cl)CC1 (stereo not drawn) [Compound I-19] | 2 (≈ 6.13 µM) | < 1 | 2 (≈ 6.13 µM) | 4 (≈ 12.3 µM) | 16 (≈ 49 µM) | better antimycotic activity than the compounds (A) and (B) | – | – | –
CCSC1(C(O)(C=Cc2ccc(Cl)cc2Cl)Cn2cncn2)CC1 (stereo not drawn) [Compound I-16] | < 1 | < 1 | 4 (≈ 10.4 µM) | 8 (≈ 20.8 µM) | < 1 | better antimycotic activity than the compounds (A) and (B) | – | – | –
OC(CCc1ccc(Cl)cc1)(Cn1cncn1)C1(SCc2ccccc2)CC1 (stereo not drawn) [Compound I-10] | 8 (≈ 19.3 µM) | < 1 | 64 (≈ 155 µM) | 2 (≈ 4.83 µM) | 4 (≈ 9.66 µM) | better antimycotic activity than the compounds (A) and (B) | – | – | –
CSC1(C(O)(CCc2ccc(Cl)cc2)Cn2cncn2)CC1 (stereo not drawn) [Compound I-6] | 2 (≈ 5.92 µM) | < 1 | < 1 | 4 (≈ 11.8 µM) | 16 (≈ 47.4 µM) | better antimycotic activity than the compounds (A) and (B) | better action than the compounds (A) and (B) | +++ (action = 60% survival on the 6th day post infection) | –
CC(C)SC1(C(O)(CCc2ccc(Cl)cc2)Cn2cncn2)CC1 (stereo not drawn) [Compound I-8] | – | 2 (≈ 5.47 µM) | 4 (≈ 10.9 µM) | 8 (≈ 21.9 µM) | 32 (≈ 87.4 µM) | better antimycotic activity than the compounds (A) and (B) | – | – | –
OC(CCc1ccc(-c2ccccc2)cc1)(Cn1cncn1)C1(Cl)CC1 (stereo not drawn) [Compound I-25] | 2 (≈ 5.44 µM) | < 1 | < 1 | < 1 | 2 (≈ 5.44 µM) | better antimycotic activity than the compounds (A) and (B) | – | – | –
OC(C=CC1CCCCC1)(Cn1cncn1)C1(Cl)CC1 (stereo not drawn) [Compound I-39] | – | 2 (≈ 6.76 µM) | 2 (≈ 6.76 µM) | 16 (≈ 54.1 µM) | 16 (≈ 54.1 µM) | better antimycotic activity than the compounds (A) and (B) | – | – | –
OC(C=Cc1ccccc1Cl)(Cn1cncn1)C1(Cl)CC1 (stereo not drawn) [Compound I-31] | 4 (≈ 12.3 µM) | < 1 | 2 (≈ 6.17 µM) | 8 (≈ 24.7 µM) | 8 (≈ 24.7 µM) | better antimycotic activity than the compounds (A) and (B) | – | – | –
CCSC1(C(O)(CCc2ccc(Cl)cc2Cl)Cn2cncn2)CC1 (stereo not drawn) [Compound I-9] | – | 8 (≈ 20.7 µM) | 16 (≈ 41.4 µM) | 4 (≈ 10.4 µM) | 16 (≈ 41.4 µM) | better antimycotic activity than the compounds (A) and (B) | – | – | –
Cc1ccc(CCC(O)(Cn2cncn2)C2(Cl)CC2)cc1 (stereo not drawn) [Compound I-20] | 2 (≈ 6.54 µM) | < 1 | < 1 | 4 (≈ 13.1 µM) | 2 (≈ 6.54 µM) | better antimycotic activity than the compounds (A) and (B) | – | – | –
OC(C=Cc1ccc(Br)cc1)(Cn1cncn1)C1(Cl)CC1 (stereo not drawn) [Compound I-30] | < 1 | < 1 | < 1 | 2 (≈ 5.43 µM) | 4 (≈ 10.9 µM) | better antimycotic activity than the compounds (A) and (B) | better action than the compounds (A) and (B) | +++++ (very good action = 90% survival on the 6th day post infection) | –
OC(CCc1ccccc1)(Cn1cncn1)C1(Cl)CC1 (stereo not drawn) [Compound I-23] | 2 (≈ 6.85 µM) | < 1 | < 1 | 4 (≈ 13.7 µM) | 8 (≈ 27.4 µM) | better antimycotic activity than the compounds (A) and (B) | – | – | –
OC(C=Cc1ccc(Cl)cc1Cl)(Cn1cncn1)C1(Cl)CC1 (stereo not drawn) [Compound I-29] | < 1 | < 1 | < 1 | 16 (≈ 44.6 µM) | 8 (≈ 22.3 µM) | better antimycotic activity than the compounds (A) and (B) | better action than the compounds (A) and (B) | +++ (action = 60% survival on the 6th day post infection) | –
OC(CCc1ccc(Cl)cc1)(Cn1cncn1)C1(Cl)CC1 (stereo not drawn) [Compound I-1, 2-(1-chlorocyclopropyl)-4-(4-chlorophenyl)-1-(1,2,4-triazol-1-yl)-butan-2-ol] | < 1 | < 1 | < 1 | 2 (≈ 6.13 µM) | < 1 | better antimycotic activity than the compounds (A) and (B) | better action than the compounds (A) and (B) | +++ (action = 60% survival on the 6th day post infection) | –
OC(CCc1ccc(OC(F)(F)F)cc1)(Cn1cncn1)C1(Cl)CC1 (stereo not drawn) [Compound I-24] | 4 (≈ 10.6 µM) | < 1 | < 1 | 16 (≈ 42.6 µM) | 4 (≈ 10.6 µM) | better antimycotic activity than the compounds (A) and (B) | – | – | –
CCCSC1(C(O)(/C=C/c2ccc(Cl)cc2Cl)Cn2cncn2)CC1 (stereo not drawn) [Compound I-3, trans-4-(2,4-dichlorophenyl)-2-(1-propylmercaptocyclopropyl)1-(1,2,4-triazol-1-yl)-but-3-en-2-ol] | – | 8 (≈ 20.1 µM) | 16 (≈ 40.2 µM) | 4 (≈ 10 µM) | 4 (≈ 10 µM) | better antimycotic activity than the compounds (A) and (B) | – | – | –
OC(C=Cc1ccc(F)c(Br)c1)(Cn1cncn1)C1(Cl)CC1 (stereo not drawn) [Compound I-34] | – | 2 (≈ 5.17 µM) | < 1 | 4 (≈ 10.3 µM) | 4 (≈ 10.3 µM) | better antimycotic activity than the compounds (A) and (B) | better action than the compounds (A) and (B) | +++ (action = 60% survival on the 6th day post infection) | –
OC(C=Cc1ccccc1)(Cn1cncn1)C1(Cl)CC1 (stereo not drawn) [Compound I-32] | 4 (≈ 13.8 µM) | < 1 | 2 (≈ 6.9 µM) | 4 (≈ 13.8 µM) | 8 (≈ 27.6 µM) | better antimycotic activity than the compounds (A) and (B) | – | – | –
OC(C=Cc1ccc(OC(F)(F)F)cc1)(Cn1cncn1)C1(Cl)CC1 (stereo not drawn) [Compound I-33] | < 1 | < 1 | < 1 | 8 (≈ 21.4 µM) | < 1 | better antimycotic activity than the compounds (A) and (B) | better action than the compounds (A) and (B) | +++++ (very good action = 90% survival on the 6th day post infection) | –
